Source: US11090304B2 (Amgen Inc., priority 2018, dated 2021)
Where two headings read alike, the source gives them in different places. Blank lines part the entries; values can stand above or below the molecule they belong to.

Tests used:
[1] = system: Phosphorylation of ERK1/2 in MIA PaCa-2 cells; experiment: Phospho-ERK1/2 MSD assay in MIA PaCa-2 cells; format: cell-based; conditions: read-out: p-ERK IC50 (2 h; MIA PaCa-2), 2 h compound treatment
Experimental: For compounds in Table 89, the following assay conditions were employed:
Phospho-ERK1/2 MSD Assay:
Sixteen hours prior to compound treatment, MIA PaCa-2 or A549 cells were seeded in 96-well cell culture plates at a density of 25,000 cells/well and incubated at 37° C., 5% CO2. A compound dose-response titration was diluted in growth media, added to appropriate wells of a cell culture plate, and then incubated at 37° C., 5% CO2 for 2 or 4 hours (see Table 15). Following compound treatment, cells were stimulated with 10 ng/mL EGF (Roche 11376454001) for 10 min, washed with ice-cold Dulbecco's phosphate-buffered saline, no Ca^2+ or Mg^2+ (ThermoFisher Scientific 14190144), and then lysed in RIPA buffer (50 mM Tris-HCl pH 7.5, 1% Igepal, 0.5% sodium deoxycholate, 150 mM NaCl, and 0.5% sodium dodecyl sulfate) containing protease inhibitors (Roche 4693132001) and phosphatase inhibitors (Roche 4906837001). Phosphorylation of ERK1/2 in compound-treated lysates was assayed using Phospho-ERK1/2 Whole Cell Lysate kits (Meso Scale Discovery K151DWD) according to the manufacturer's protocol. Assay plates were read on a Meso Scale Discovery Sector Imager 6000, and data were analyzed using a 4-parameter logistic model to calculate IC50 values.

[2] = molecular target: GDP-bound KRAS protein (aa 1-169), containing both G12C and C118A amino acid substitutions (Homo sapiens, UniProt P01116, C118A/G12C); experiment: Coupled nucleotide exchange assay (SOS-mediated, AlphaScreen); format: biochemical
Chain of GDP-bound KRAS protein (aa 1-169), containing both G12C and C118A amino acid substitutions (P01116 1-169 isoform P01116-2 G12C/C118A): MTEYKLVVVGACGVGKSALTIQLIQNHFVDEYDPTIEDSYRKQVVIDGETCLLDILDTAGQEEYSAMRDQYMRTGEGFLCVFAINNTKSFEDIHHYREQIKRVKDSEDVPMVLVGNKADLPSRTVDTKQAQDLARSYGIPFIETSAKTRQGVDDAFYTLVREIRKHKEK

SMILES: C=CC(=O)N1CCN(c2nc(=O)n(-c3c(C)ncnc3C(C)C)c3nc(-c4c(O)cccc4F)c(Cl)cc23)[C@@H](C)C1 (single isomer, unassigned) [Example 55-14-1]
IC50 [1]: 1090 nM

SMILES: C=CC(=O)N1CCN(c2nc(=O)n(-c3ccccc3C(C)C)c3nc(-c4ccccc4O)c(Cl)cc23)[C@@H](C)C1 [Example 54-43, 6-chloro-7-(2-hydroxyphenyl)-4-((2S)-2-methyl-4-(2-propenoyl)-1-piperazinyl)-1-(2-(2-propanyl)phenyl)pyrido [2,3-d]pyrimidin-2(1H)-one]
IC50 ([1]; Homo sapiens, MIA PaCa-2, 2 h): 251 nM

SMILES: C=CC(=O)N1CCN(c2nc(=O)n(-c3c(C)cccc3CC)c3nc(-c4c(O)cccc4F)c(Cl)cc23)[C@@H](C)C1 (single isomer, unassigned) [Example 55-8-1]
IC50 [1]: 45 nM

SMILES: C=CC(=O)N1CCN(c2nc(=O)n(-c3c(C(C)C)ccnc3C)c3nc(-c4c(O)cccc4F)c(Cl)cc23)[C@@H](C)C1 [Example 54-17, 6-chloro-7-(2-fluoro-6-hydroxy-phenyl)-1-(2-methyl-4-(2-propanyl)-3-pyridinyl)-4-((2S)-2-methyl-4-(2-propenoyl)-1-piperazinyl) pyrido[2,3-d]pyrimidin-2(1H)-one]
IC50 ([1]; Homo sapiens, MIA PaCa-2, 2 h): 504 nM

SMILES: C=CC(=O)N1CCN(c2nc(=O)n(-c3c(C)cccc3C(C)C)c3nc(-c4c(O)cccc4F)c(F)cc23)[C@@H](C)C1 (single isomer, unassigned) [Example 58-18-2]
IC50 [1]: 715 nM

SMILES: C=CC(=O)N1CCN(c2nc(=O)n(-c3c(C)cnn3C(C)C)c3nc(-c4c(O)cccc4F)c(Cl)cc23)[C@@H](C)C1 [Example 54-70, 6-chloro-7-(2-fluoro-6-hydroxyphenyl)-1-(4-methyl-1-(2-propanyl)-1H-pyrazol-5-yl)-4-((2S)-2-methyl-4-(2-propenoyl)-1-piperazinyl) pyrido[2,3-d]pyrimidin-2(1H)-one]
IC50 ([1]; Homo sapiens, MIA PaCa-2, 2 h): 88 nM

SMILES: C=CC(=O)N1CCN(c2nc(=O)n(-c3ccccc3C(C)C)c3nc(-c4cccs4)c(Cl)cc23)[C@@H](C)C1 (single isomer, unassigned) [Example 67-4-1]
Coupled exchange IC50 (5 min) ([2]; 5 min compound pre-incubation): 7.34 | nda μM

SMILES: C=CC(=O)N1CCN(c2nc(=O)n(-c3c(C)cccc3C(C)C)c3nc(Cl)c(Cl)cc23)[C@@H](C)C1 (atropisomer, axis not shown; (M)) [Example 112, (M)-6,7-Dichloro-1-(2-methyl-6-(2-propanyl)phenyl)-4-((2S)-2-methyl-4-(2-propenoyl)-1-piperazinyl)pyrido[2,3-d]pyrimidin-2(1H)-one]
IC50 ([2]; read-out: Coupled exchange IC50 (5 min), 5 min compound pre-incubation): 2450 nM

SMILES: C=CC(=O)N1CCN(c2nc(C)c(C(=O)N(C(C)C)C(C)C)c3nc(-c4ccccc4F)c(Cl)cc23)CC1 [Example 144, 3-Chloro-2-(2-fluorophenyl)-7-methyl-N,N-di(2-propanyl)-5-(4-(2-propenoyl)-1-piperazinyl)-1,6-naphthyridine-8-carboxamide]
Coupled exchange IC50 (5 min) ([2]; 5 min compound pre-incubation): 8.31 | nda μM

SMILES: C=CC(=O)N1CCN(c2nc(=O)n(-c3c(CC)cccc3CC)c3nc(Oc4cccc(F)c4)c(Cl)cc23)[C@@H](C)C1 [Example 54-64, 6-chloro-1-(2,6-diethylphenyl)-7-(3-fluorophenoxy)-4-((2S)-2-methyl-4-(2-propenoyl)-1-piperazinyl) pyrido[2,3-d]pyrimidin-2(1H)-one]
Coupled exchange IC50 (2 h) ([2]; 2 h compound pre-incubation): nda | 7.97 μM

SMILES: C=CC(=O)N1CCN(c2nc(=O)n(-c3nc(C)ccc3C(C)C)c3nc(-c4c(O)cccc4F)c(Cl)cc23)[C@@H](C)C1 [Example 54-14, 6-chloro-7-(2-fluoro-6-hydroxyphenyl)-1-(6-methyl-3-(2-propanyl)-2-pyridinyl)-4-((2S)-2-methyl-4-(2-propenoyl)-1-piperazinyl) pyrido[2,3-d]pyrimidin-2(1H)-one]
Coupled exchange IC50 (5 min) ([2]; 5 min compound pre-incubation): 12.4 | nda μM

The remaining lines, values ahead:

IC50 [1]: 1650 nM
SMILES: C=CC(=O)N1CCN(c2nc(=O)n(-c3ccccc3C(C)C)c3cc(-c4ccccc4F)c(Cl)cc23)CC1 (single isomer, unassigned) [Example 88-2, 6-chloro-7-(2 fluorophenyl)-1-(2-(2-propanyl)phenyl)-4-(4-(2-propenoyl)-1-piperazinyl)-2(1H)-quinazolinone]

IC50 ([1]; Homo sapiens, MIA PaCa-2, 2 h): 10000 nM
SMILES: C=CC(=O)N1CCN(c2nc(C)c(-c3ccccc3C3CC3)c3nc(-c4ccccc4F)c(Cl)cc23)CC1 [Example 85-3, 1-(4-(3-chloro-8-(2-cyclopropylphenyl)-2-(2-fluorophenyl)-7-methyl-1,6-naphthyridin-5-yl)-1-piperazinyl)-2-propen-1-one]

IC50 ([1]; Homo sapiens, MIA PaCa-2, 2 h): 10000 nM
SMILES: C=CC(=O)N1CCN(c2nc(C)c(-c3ccccc3C(C)C)c3nc(-c4ccccc4F)c(Cl)cc23)[C@@H](C)C1 [Example 85-4, 1-((3S)-4-(3-chloro-2-(2-fluorophenyl)-7-methyl-8-(2-(2-propanyl)phenyl)-1,6-naphthyridin-5-yl)-3-methyl-1-piperazinyl)-2-propen-1-one]

IC50 ([1]; Homo sapiens, MIA PaCa-2, 2 h): 365 nM
SMILES: C=CC(=O)N1CCN(c2nc(=O)n(-c3c(C(C)C)ccnc3C)c3nc(-c4c(O)cccc4F)c(F)cc23)[C@@H](C)C1 [Example 58-15, 6-fluoro-7-(2-fluoro-6-hydroxyphenyl)-1-(2-methyl-4-(2-propanyl)-3-pyridinyl)-4-((2S)-2-methyl-4-(2-propenoyl)-1-piperazinyl)pyrido[2,3-d]pyrimidin-2(1H)-one]

IC50 ([1]; Homo sapiens, MIA PaCa-2, 2 h): 134 nM
SMILES: C=CC(=O)N1CCN(c2nc(=O)n(-c3c(C)ncnc3C(C)C)c3nc(-c4c(O)cccc4F)c(Cl)cc23)[C@@H](C)C1 [Example 55-14, 6-chloro-7-(2-fluoro-6-hydroxyphenyl)-1-(4-methyl-6-(2-propanyl)-5-pyrimidinyl)-4-((2S)-2-methyl-4-(2-propenoyl)-1-piperazinyl)pyrido[2,3-d]pyrimidin-2(1H)-one]

Coupled exchange IC50 (5 min) ([2]; 5 min compound pre-incubation): 25.5 | nda μM
SMILES: C=CC(=O)N1CCN(c2nc(=O)n(CC3CCN(C(=O)OC(C)(C)C)CC3)c3nc(Cl)c(Cl)cc23)[C@@H](C)C1 [Example 60-25, 2-methyl-2-propanyl 4-((6,7-dichloro-4-((2S)-2-methyl-4-(2-propenoyl)-1-piperazinyl)-2-oxopyrido[2,3-d]pyrimidin-1(2H)-yl)methyl)-1-piperidinecarboxylate]

Coupled exchange IC50 (5 min) ([2]; 5 min compound pre-incubation): 1.3 | nda μM
SMILES: C=CC(=O)N1CCN(c2nc(=O)n(-c3ccccc3C(C)O)c3nc(-c4c(O)cccc4F)c(Cl)cc23)[C@@H](C)C1 (stereo partly drawn) [Example 60-27, 6-chloro-7-(2-fluoro-6-hydroxyphenyl)-1-(2-((1R)-1-hydroxyethyl)phenyl)-4-((2S)-2-methyl-4-(2-propenoyl)-1-piperazinyl)pyrido[2,3-d]pyrimidin-2(1H)-one | 6-chloro-7-(2-fluoro-6-hydroxyphenyl)-1-(2-((1S)-1-hydroxyethyl)phenyl)-4-((2S)-2-methyl-4-(2-propenoyl)-1-piperazinyl)pyrido[2,3-d]pyrimidin-2(1H)-one]

Coupled exchange IC50 (5 min) ([2]; 5 min compound pre-incubation): 172 | nda μM
SMILES: C=CC(=O)N1CCN(c2nc(=O)c(-c3ccccc3C)c3cc(-c4ccccc4Br)c(C)nn23)CC1 [Example 81-1, 3-(2-Bromophenyl)-2-methyl-5-(2-methylphenyl)-8-(4-(2-propenoyl)-1-piperazinyl)-6H-pyrimido[1,6-b]pyridazin-6-one]

Coupled exchange IC50 (5 min) ([2]; 5 min compound pre-incubation): 28.2 | nda μM
SMILES: C=CC(=O)N1CCN(c2nc(=O)n(-c3c(CC)cccc3CC)c3nc(N4CCC(CC)(CC)C4)c(Cl)cc23)[C@@H](C)C1 [Example 66-20, 6-chloro-1-(2,6-diethylphenyl)-7-(3,3-diethyl-1-pyrrolidinyl)-4-((2S)-2-methyl-4-(2-propenoyl)-1-piperazinyl)pyrido[2,3-d]pyrimidin-2(1H)-one]
